Common to all, as to type: biochemical
Assay [1] has as its target T1, PI3Kgamma (Homo sapiens, UniProt P48736).
T1 construct: His (N); host or cells: SF9 insect cells (baculovirus)
The assay is described as follows: Human PI3K gamma enzyme assay (HTRF, as for PI3K alpha). Particulars: for inhibition at 1.11 µM: read-out: PI3Kgamma % inh; for PI3Kgamma % inh: at 1.11 μM. A digest of the protocol:
(§1)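 N-His p110β/δ co-expressed with untagged p85 in Sf9, p110γ alone. Enzyme 5.25 nM (β), 0.75 nM (δ), 5 nM (γ), with ATP 25 uM and di-C8 PI(4,5)P2 3.5 uM (added-solution levels), pH 7.00, 30 min RT. HTRF read-out: biotin-PIP3, GST-GRP-1 PH domain, Eu anti-GST, streptavidin-XL.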
A general note: TR-FRET usually uses a lanthanide donor and a delayed reading to cut background.

Assay [2] addresses T2, PI3Kbeta (Homo sapiens, UniProt P42338).
T2 construct: His (N); host or cells: SF9 insect cells (baculovirus)
The assay is described as follows: Human PI3K beta enzyme assay (HTRF, as for PI3K alpha). Particulars: for inhibition at 1.11 µM: read-out: PI3Kbeta % inh; for IC50: read-out: IC50 (inhibit PI3Kbeta); for inhibition at 1.11 µM / PI3Kbeta % inh: at 1.11 μM. A digest of the protocol: as §1

Assay [3] has as its target T3, VPS34 (Homo sapiens, UniProt Q8NEB9).
T3 construct: GST (N); host or cells: SF9 insect cells (baculovirus)
Put plainly: Human VPS34 enzyme assay (Adapta Universal Kinase Assay). Particulars: for inhibition at 1.11 µM: 1 h, read-out: VPS34 % ihn; for VPS34 % ihn: at 1.11 μM. How it is done: VPS34 (accession number GB:BC033004) is cloned into pDEST20-Thombin as N-terminal GST tagged fusion proteins using the Gateway system (Invitrogen, catalog#11804-013). The sequences are verified before recombinant protein expression using the Baculovirus Expression System with Gateway® Technology.
For expression VPS34 was infected at 1MOI in SF9 cells and harvested 72 hours post infection.
For purification, VPS34 is purified by Glutathione Sepharose 4 Fast Flow (GE Healthcare #17-5132-03) followed by HiTrap Q (GE Healthcare #17-1153-01).
3) VPS34 is assayed using Adapta™ Universal Kinase Assay Kit (Invitrogen).
4) Human VPS34 enzyme assay method
100 mL compounds in DMSO are added to wells of a 384 well microtitre plate (Greiner 780076). At room temperature: 5 ul VPS34 reaction buffer (Invitrogen Assay Buffer Q (diluted 1 in 5 with nanopure water) plus 2 mM DTT and 2 mM MnCl2) containing ATP (20 uM, Promega) and 200 uM PI-PS substrate (Invitrogen PV5122) is added followed immediately by 5 ul VPS34 reaction buffer (as above) containing VPS34 (5 nM, Millennium Protein Sciences Group) and the mixture is incubated with shaking at room temperature for 1 hour. Then 5 ul VPS34 stop-detect mix (as per Invitrogen Adapta Assay kit (PV5009) instructions (contains kinase quench buffer, TR-FRET buffer, Adapta Eu anti-ADP antibody and Alexa Fluor 647 ADP tracer)) is added to quench the reaction. The plates are then incubated for 30 minutes at room temperature with shaking and then read on a BMG PheraStar Plus reader.

Assay [4] concerns the target T4, PI3Kdelta (Homo sapiens, UniProt O00329).
T4 construct: His (N); host or cells: SF9 insect cells (baculovirus)
Put plainly: Human PI3K delta enzyme assay (HTRF, as for PI3K alpha). The settings on record: for inhibition at 1.11 µM: read-out: PI3Kdelta % inh; for PI3Kdelta % inh: at 1.11 μM. A digest of the protocol:
as §1

Assay [5] addresses T5, PI3Kalpha (Homo sapiens, UniProt P42336).
T5 construct: His (N); host or cells: SF9 insect cells (baculovirus)
The assay is described as follows: Human PI3Kα enzyme assay (HTRF). The settings on record: for inhibition at 1.11 µM: read-out: PI3Kalpha % inh; for PI3Kalpha % inh: at 1.11 μM. A digest of the protocol: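 His-tagged p110α co-expressed with p85 in Sf9 cells was reacted for 30 min at room temperature in pH 7.00 Hepes buffer with 10 mM MgCl2. Addition solutions held 25 uM ATP, 3.5 uM di-C8 PI(4,5)P2 and 0.4875 nM enzyme. The reaction was quenched with EDTA/biotin-PIP3 and detected by HTRF (GST-GRP-1 PH domain, streptavidin-XL, Eu anti-GST) after 1 h.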

T3 sequence (Q8NEB9 whole entry): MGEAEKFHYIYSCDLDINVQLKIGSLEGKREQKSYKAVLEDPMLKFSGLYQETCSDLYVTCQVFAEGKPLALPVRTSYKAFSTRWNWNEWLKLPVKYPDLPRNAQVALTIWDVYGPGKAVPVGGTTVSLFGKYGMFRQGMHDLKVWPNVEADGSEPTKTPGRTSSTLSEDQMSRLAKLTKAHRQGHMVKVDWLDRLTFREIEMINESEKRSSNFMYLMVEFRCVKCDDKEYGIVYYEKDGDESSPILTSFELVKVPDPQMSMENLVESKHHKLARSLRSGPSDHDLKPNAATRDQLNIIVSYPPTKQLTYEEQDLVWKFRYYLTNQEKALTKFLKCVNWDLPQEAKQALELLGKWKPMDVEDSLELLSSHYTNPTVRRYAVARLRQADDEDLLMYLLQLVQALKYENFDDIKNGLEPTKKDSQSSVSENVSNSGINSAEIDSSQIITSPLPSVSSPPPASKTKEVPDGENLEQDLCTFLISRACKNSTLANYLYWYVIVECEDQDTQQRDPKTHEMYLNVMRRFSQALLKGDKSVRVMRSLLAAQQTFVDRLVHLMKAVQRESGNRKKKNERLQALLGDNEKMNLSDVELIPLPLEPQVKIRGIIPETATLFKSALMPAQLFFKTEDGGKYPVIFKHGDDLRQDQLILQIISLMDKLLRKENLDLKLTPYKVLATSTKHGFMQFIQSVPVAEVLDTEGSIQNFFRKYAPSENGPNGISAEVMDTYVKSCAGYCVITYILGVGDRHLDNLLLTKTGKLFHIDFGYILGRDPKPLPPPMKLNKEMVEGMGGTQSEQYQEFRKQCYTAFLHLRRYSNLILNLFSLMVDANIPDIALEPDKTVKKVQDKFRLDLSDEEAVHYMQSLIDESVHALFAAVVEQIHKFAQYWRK
T4 sequence (O00329 whole entry): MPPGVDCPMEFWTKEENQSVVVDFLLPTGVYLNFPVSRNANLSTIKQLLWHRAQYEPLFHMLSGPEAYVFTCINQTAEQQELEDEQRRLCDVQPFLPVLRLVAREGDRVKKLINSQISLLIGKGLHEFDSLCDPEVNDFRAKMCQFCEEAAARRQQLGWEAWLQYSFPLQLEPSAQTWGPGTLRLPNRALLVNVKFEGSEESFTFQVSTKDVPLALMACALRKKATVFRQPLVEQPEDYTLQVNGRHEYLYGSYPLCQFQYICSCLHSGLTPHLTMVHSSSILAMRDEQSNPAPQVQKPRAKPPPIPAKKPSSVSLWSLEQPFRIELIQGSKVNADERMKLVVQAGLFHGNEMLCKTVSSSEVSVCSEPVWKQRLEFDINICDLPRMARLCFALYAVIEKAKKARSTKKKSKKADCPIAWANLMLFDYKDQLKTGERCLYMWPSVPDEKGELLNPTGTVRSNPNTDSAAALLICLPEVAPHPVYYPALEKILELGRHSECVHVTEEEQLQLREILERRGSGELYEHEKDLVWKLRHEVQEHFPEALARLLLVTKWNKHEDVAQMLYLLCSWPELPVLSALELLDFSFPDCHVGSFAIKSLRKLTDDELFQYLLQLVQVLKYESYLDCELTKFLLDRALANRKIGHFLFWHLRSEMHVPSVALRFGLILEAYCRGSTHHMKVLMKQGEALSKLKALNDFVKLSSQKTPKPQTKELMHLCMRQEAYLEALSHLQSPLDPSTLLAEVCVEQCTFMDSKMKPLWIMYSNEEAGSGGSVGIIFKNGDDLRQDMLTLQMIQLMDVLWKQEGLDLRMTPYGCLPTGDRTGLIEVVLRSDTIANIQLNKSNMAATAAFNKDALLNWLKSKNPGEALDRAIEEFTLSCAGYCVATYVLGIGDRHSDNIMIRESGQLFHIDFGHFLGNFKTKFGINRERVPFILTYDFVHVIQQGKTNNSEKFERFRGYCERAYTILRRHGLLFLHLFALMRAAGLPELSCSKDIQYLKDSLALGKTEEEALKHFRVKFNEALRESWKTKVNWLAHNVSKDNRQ
T4 sequence (P27986 whole entry partner): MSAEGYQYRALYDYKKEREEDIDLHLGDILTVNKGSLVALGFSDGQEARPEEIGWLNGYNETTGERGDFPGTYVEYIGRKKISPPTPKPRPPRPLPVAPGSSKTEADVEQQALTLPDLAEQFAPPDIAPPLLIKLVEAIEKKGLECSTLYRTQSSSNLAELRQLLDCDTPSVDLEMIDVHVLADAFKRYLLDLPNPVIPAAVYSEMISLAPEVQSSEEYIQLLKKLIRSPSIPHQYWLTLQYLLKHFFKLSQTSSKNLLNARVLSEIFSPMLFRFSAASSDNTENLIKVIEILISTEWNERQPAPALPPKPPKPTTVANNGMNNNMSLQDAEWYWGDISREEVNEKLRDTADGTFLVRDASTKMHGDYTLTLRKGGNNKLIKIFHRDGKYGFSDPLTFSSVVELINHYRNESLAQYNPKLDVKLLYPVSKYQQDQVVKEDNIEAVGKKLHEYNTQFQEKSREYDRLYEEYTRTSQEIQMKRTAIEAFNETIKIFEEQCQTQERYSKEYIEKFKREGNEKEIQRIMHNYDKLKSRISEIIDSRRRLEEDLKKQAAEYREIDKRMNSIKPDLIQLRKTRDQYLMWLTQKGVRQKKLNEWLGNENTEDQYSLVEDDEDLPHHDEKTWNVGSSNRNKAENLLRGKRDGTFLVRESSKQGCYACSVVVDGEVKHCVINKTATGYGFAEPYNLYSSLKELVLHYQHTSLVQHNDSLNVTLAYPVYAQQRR
T1 sequence (P48736 whole entry): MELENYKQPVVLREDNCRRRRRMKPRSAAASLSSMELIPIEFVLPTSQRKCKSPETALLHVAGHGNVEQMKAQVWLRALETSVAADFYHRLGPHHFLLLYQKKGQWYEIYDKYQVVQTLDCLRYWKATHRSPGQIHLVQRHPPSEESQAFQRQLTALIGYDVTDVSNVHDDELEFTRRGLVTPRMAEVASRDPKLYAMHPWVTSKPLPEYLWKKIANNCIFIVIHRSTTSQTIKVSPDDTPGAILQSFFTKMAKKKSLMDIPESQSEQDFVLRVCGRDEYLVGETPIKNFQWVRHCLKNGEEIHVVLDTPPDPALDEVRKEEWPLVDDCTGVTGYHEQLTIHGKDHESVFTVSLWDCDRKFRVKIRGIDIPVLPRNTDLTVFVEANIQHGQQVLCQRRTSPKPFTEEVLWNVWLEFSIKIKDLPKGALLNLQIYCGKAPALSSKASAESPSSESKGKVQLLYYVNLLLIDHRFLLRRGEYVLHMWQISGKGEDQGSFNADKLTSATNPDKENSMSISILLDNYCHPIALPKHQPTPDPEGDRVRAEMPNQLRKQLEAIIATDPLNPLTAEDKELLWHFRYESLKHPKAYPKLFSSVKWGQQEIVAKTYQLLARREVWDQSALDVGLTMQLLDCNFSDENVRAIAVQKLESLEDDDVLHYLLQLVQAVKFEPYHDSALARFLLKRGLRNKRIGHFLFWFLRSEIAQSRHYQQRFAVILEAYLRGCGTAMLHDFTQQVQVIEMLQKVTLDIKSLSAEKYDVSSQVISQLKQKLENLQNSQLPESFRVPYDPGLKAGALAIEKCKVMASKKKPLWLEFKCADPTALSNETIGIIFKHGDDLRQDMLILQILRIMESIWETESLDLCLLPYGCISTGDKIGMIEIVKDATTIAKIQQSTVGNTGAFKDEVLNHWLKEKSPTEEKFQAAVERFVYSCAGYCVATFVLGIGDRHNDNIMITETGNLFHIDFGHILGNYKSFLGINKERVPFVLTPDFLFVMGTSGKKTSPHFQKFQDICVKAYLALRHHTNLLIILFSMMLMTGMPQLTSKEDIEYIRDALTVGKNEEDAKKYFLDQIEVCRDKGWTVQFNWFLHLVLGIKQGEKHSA
T2 sequence (P42338 whole entry): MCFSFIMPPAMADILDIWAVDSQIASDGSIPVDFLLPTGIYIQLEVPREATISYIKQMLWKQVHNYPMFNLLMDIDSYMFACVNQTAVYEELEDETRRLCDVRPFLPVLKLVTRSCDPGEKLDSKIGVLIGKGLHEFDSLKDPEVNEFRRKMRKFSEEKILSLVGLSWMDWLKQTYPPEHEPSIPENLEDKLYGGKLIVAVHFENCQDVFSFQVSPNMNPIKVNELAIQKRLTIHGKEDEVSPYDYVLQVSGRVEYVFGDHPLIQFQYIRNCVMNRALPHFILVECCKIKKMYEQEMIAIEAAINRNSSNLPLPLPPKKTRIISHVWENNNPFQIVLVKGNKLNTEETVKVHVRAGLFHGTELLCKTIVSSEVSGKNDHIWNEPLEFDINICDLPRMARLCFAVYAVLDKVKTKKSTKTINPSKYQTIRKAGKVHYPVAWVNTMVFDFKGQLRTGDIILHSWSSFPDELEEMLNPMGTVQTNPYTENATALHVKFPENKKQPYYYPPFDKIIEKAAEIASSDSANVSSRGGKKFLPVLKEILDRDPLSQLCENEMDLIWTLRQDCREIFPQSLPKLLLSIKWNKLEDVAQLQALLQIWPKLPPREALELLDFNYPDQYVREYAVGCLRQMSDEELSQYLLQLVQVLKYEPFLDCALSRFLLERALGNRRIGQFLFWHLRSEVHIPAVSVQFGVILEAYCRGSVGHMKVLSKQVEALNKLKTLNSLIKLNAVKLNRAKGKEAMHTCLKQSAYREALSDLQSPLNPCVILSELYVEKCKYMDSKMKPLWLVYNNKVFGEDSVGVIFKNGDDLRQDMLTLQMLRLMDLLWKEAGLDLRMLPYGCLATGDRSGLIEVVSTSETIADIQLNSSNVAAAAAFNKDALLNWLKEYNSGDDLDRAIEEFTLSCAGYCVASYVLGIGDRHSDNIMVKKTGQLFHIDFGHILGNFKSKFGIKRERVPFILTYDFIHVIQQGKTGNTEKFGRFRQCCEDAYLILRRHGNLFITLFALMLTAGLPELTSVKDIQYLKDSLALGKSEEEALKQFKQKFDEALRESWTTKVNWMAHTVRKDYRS
T2 sequence (P27986 whole entry partner): as the sequence (P27986 whole entry partner) above

`O/N=C1\CCC(c2ccc(Cl)cc2)c2cc(-c3ccncc3)sc21` (stereo not drawn) [Compound 24]: the inhibition at 1.11 µM is 16.9% in assay [1]; 98.1% in assay [2]; -6.9% in assay [3]; 54.2% in assay [4]; 13.8% in assay [5].

As to `O=C1NCCC(c2ccc(Cl)cc2)c2cc(-c3ccncc3)sc21` (racemic) [Compound 8, 4-(4-chlorophenyl)-2-pyridin-4-yl-4,5,6,7-tetrahydro-8H-thieno[2,3-c]azepin-8-one], the inhibition at 1.11 µM in assay [1] came out at 21.9%; in assay [2], 102%; in assay [3], 2.55%; in assay [4] it was 59.2%; in assay [5], 2.05%. The IC50 (in general, the concentration that gives 50% inhibition) in assay [2] is < 100 nM.

For the compound `Clc1ccc(C2Cc3cn[nH]c3-c3sc(-c4ccncc4)cc32)cc1` (stereo not drawn) [Compound 12, 5-(4-chlorophenyl)-7-pyridin-4-yl-4,5-dihydro-1H-thieno[3,2-g]indazole], the inhibition at 1.11 µM in assay [1] is 31%; in assay [2], 73.2%; in assay [3], -6%; in assay [4] it was 69%; in assay [5] it was 9.4%. Besides, the IC50 in assay [2] fell in the range of 100 to 1000 nM.

For the compound `O=C1CCC(c2ccc(Cl)cc2)c2cc(-c3ccncc3)sc21` (racemic) [Compound 13, 4-(4-chlorophenyl)-2-pyridin-4-yl-5,6-dihydro-1-benzothiophen-7(4H)-one], the inhibition at 1.11 µM in assay [1] turned out to be 10.8%; in assay [2] it was 102%; in assay [3], 6.6%; in assay [4], 55.7%; in assay [5] it was 3.1%. Further, the IC50 in assay [2] was < 100 nM.

For the compound `O=S1(=O)NCC(O)(c2ccc(Cl)cc2)c2cc(-c3ccncc3)sc21` (single isomer, unassigned) [Compound 9, 4-(4-chlorophenyl)-6-pyridin-4-yl-3,4-dihydro-2H-thieno[3,2-e][1,2]thiazin-4-ol 1,1-dioxide], the PI3Kgamma % inh in assay [1] was determined as 3.300%. Also, in assay [2], the PI3Kbeta % inh was determined as 67.200% and the IC50 lay within 100 to 1000 nM. For the same compound, the VPS34 % ihn in assay [3] is given as −2.200%. Also, in assay [4], the PI3Kdelta % inh worked out at 41.900%. Further, in assay [5], the inhibition at 1.11 µM was 3.6%.

In the case of `O=C1NCC(c2ccc(Cl)cc2)c2cc(-c3ccncc3)sc21` (stereo not drawn) [Compound 30], the inhibition at 1.11 µM in assay [1] turned out to be 11.2%; in assay [2], 94.9%; in assay [4], 36%; in assay [5], 6.3%. Besides, in assay [2], the IC50 is < 100 nM. The VPS34 % ihn in assay [3] is recorded as −0.200%.

For the compound `N#Cc1c(N2CCOCC2)sc2c1C(c1ccc(Cl)cc1)CNC2=O` (stereo not drawn) [Compound 149], the inhibition at 1.11 µM stood at 29.1% in assay [1]; 108% in assay [2]; 4.85% in assay [3]; 80.9% in assay [4]; 46.1% in assay [5].

For `O=C1CC(c2ccc(Cl)cc2)c2cc(N3CCOCC3)sc21` (stereo not drawn) [Compound 145], the PI3Kgamma % inh in assay [1] worked out at 50.45%. In assay [2], this compound had a PI3Kbeta % inh of 101.66%. In addition, in assay [3], the VPS34 % ihn is listed as −1.31%. Also, the PI3Kdelta % inh in assay [4] was 88.59%. Also, the PI3Kalpha % inh in assay [5] was 18.36%.

Turning to `CN1CCC(c2ccc(Cl)cc2)c2cc(N3CCOCC3)sc2C1=O` (stereo not drawn) [Compound 141, 4-(4-chlorophenyl)-7-methyl-2-(morpholin-4-yl)-4,5,6,7-tetrahydro-8H-thieno[2,3-c]azepin-8-one], the inhibition at 1.11 µM in assay [1] is 6.82%; in assay [2] it was 77%; in assay [3] it was 15.1%; in assay [4], 47.2%; in assay [5], 4.69%.

`O=C1NCCC(c2ccc(Cl)cc2)c2cc(-c3ccncc3)sc21` (single isomer, unassigned) [Compound 21, 4-(4-chlorophenyl)-2-pyridin-4-yl-4,5,6,7-tetrahydro-8H-thieno[2,3-c]azepin-8-one] returned a PI3Kgamma % inh in assay [1] of 24.700%. Besides, in assay [2], the PI3Kbeta % inh came to 111.967% and the IC50 is < 100 nM. Further, the inhibition at 1.11 µM in assay [3] was found to be 9.1%. The PI3Kdelta % inh in assay [4] is given as 79.150%. In addition, the inhibition at 1.11 µM in assay [5] was determined as 6.07%.

Turning to `O=C1CC(c2cccc(Cl)c2)c2cc(N3CCOCC3)sc21` (stereo not drawn) [Compound 186], the inhibition at 1.11 µM is 23.3% in assay [1]; 92.3% in assay [2]; 26.8% in assay [3]; 74.9% in assay [4]; 15.1% in assay [5].

`O=C1CC(c2ccc(Cl)cc2)c2cc(-c3ccncc3)sc21` (stereo not drawn) [Compound 23, 4-(4-chlorophenyl)-2-(pyridin-4-yl)-4H-cyclopenta[b]thiophen-6(5H)-one]: the inhibition at 1.11 µM in assay [1] is 10.9%; in assay [2] it was 92.8%; in assay [3] it was -2%; in assay [4], 23%; in assay [5] it was 3.1%. Also, the IC50 in assay [2] was 100 to 1000 nM.

`O=C1NCC(c2ccc(Cl)cc2)c2cc(-c3ccncc3)sc21` (stereo not drawn) [Compound 156] yielded a PI3Kgamma % inh in assay [1] of 11.17%. The same compound yielded a PI3Kbeta % inh in assay [2] of 94.95%. In addition, in assay [3], the VPS34 % ihn is reported as −0.21%. In addition, in assay [4], the PI3Kdelta % inh is 36.03%. In assay [5], this compound yielded a PI3Kalpha % inh of 6.34%.

Take `O=C1NCC(c2ccc(Cl)cc2)c2cc(N3CCOCC3)sc21` (stereo not drawn) [Compound 128]: the inhibition at 1.11 µM in assay [1] was 45.9%; in assay [3], 36.3%; in assay [4], 87%. In assay [2], this compound had a PI3Kbeta % inh of 107.54%. Besides, the PI3Kalpha % inh in assay [5] was 18.03%.

Take `N#Cc1c(N2CCOCC2)sc2c1C(c1c(F)cc(Cl)cc1F)CCNC2=O` (stereo not drawn) [Compound 155]: the inhibition at 1.11 µM in assay [1] is 42.6%; in assay [2], 113%; in assay [3], 11.6%; in assay [4] it was 104%; in assay [5] it was 64.7%.

On to `O=C1NCCCC(c2ccc(Cl)cc2)c2cc(-c3ccncc3)sc21` (stereo not drawn) [Compound 31], for which the inhibition at 1.11 µM was 6.9% in assay [1]; 83.3% in assay [2]; 2% in assay [3]; 50.5% in assay [4]; 16.6% in assay [5]. Further, in assay [2], the IC50 was in the range of 100 to 1000 nM.

On to `Cc1nn2ccccc2c1-c1nc2c(s1)C(=O)CCC2c1ccc(Cl)cc1` (stereo not drawn) [Compound 20, 4-(4-chlorophenyl)-2-(2-methylpyrazolo[1,5-a]pyridin-3-yl)-5,6-dihydro-1,3-benzothiazol-7(4H)-one], for which the inhibition at 1.11 µM was 6.6% in assay [1]; 68.2% in assay [2]; 0.9% in assay [3]; 60.4% in assay [4]; 23.6% in assay [5]. In addition, in assay [2], the IC50 was 100 to 1000 nM.

For the compound `O=C1CCC(c2ccc(Cl)cc2)c2cc(-c3ccncc3)sc21` (single isomer, unassigned) [Compound 22, 4-(4-chlorophenyl)-2-pyridin-4-yl-5,6-dihydro-1-benzothiophen-7(4H)-one], the inhibition at 1.11 µM in assay [1] is 14.2%; in assay [3], 4.4%; in assay [4], 44.5%. For the same compound, the PI3Kbeta % inh in assay [2] stood at 97.500%. Also, the IC50 in assay [2] was < 100 nM. In assay [5], this compound yielded a PI3Kalpha % inh of 0.600%.

Turning to `O=C1CC(c2ccc(Cl)cc2F)c2cc(N3CCOCC3)sc21` (stereo not drawn) [Compound 117], the inhibition at 1.11 µM in assay [1] was 35.5%; in assay [2] it was 101%; in assay [3], 6.21%; in assay [4] it was 81.2%; in assay [5], 26.6%.

The record behind these values is US8765746B2 (Millennium Pharmaceuticals, Inc., priority 2010, dated 2014).
